# According to article PMC10634346 (Cancer Research Communications, 2023):
# pIC50: −log10 of the molar value.
# Columns and labels:
# [1] = tested on: SU-DHL-4; experiment: CellTiter-Glo cell viability, SU-DHL-4; format: cell-based; settings: Homo sapiens
# Experimental: (§1) Human DLBCL cell lines SU-DHL-4 (#ACC 495) and SU-DHL-10 (#ACC 576) were obtained from DSMZ (German Collection of Microorganisms and Cell Cultures). The supplier used PCR-based DNA profiling of polymorphic short tandem repeats for authentication and Mycoplasma testing prior to shipment. Cells were cultured in suspension at 37°C in a humidified atmosphere containing 5% CO2. CDK9 inhibitors KB-0742 (MedChemExpress, #HY-137478A), enitociclib, and atuveciclib ([…] Pharma, Inc.) were used. A subset of 35 lymphoma cell lines is from a 500-cell line panel where the effect of enitociclib on cell viability using CellTiter-Glo luminescent cell viability was determined (OmniScreen, CrownBioscience). Genetic status and gene expression level for MYC and MCL1 was obtained from CrownBioscience.
# [2] = tested on: SU-DHL-10; experiment: CellTiter-Glo cell viability, SU-DHL-10; format: cell-based; settings: Homo sapiens, SU-DHL10
# Experimental: as §1
# [3] = Body weight of treated xenograft mice; format: in vivo, C.B-17 SCID mice; settings: 15 mg/kg i.v. once weekly
# Experimental: A total of 10 × 10^6 SU-DHL-10 cells were inoculated subcutaneously into 6–8 weeks old female C.B-17 SCID mice (Iffa Credo, Brussels). The mice were randomized to treatment groups at a tumor volume of 63–104 mm^3 and treated (intravenously, once weekly) with 10 mg/kg enitociclib (60% PEG400, 10% ethanol, water), 15 mg/kg enitociclib (30% PEG400, 10% ethanol, water), or corresponding vehicle treatments. Mice were around 10–12 weeks of age at the start of study. All animal experiments were performed under the national animal welfare laws of Germany and approved by the local authorities.
# [4] = tested on: p-Ser5 RNA polymerase II in SU-DHL-10 tumors; experiment: Pharmacodynamics in SU-DHL-10 xenograft tumors, p-Ser5; format: in vivo, C.B-17 SCID mice; settings: single dose, all doses (5, 10, 15 mg/kg)
# Experimental: The levels of p-Ser2, p-Ser5 and total RNA polymerase II, Myc, Mcl-1, cleaved PARP (cPARP), and cleaved Caspase 3 were assessed by Western blotting and quantified near-infrared detection and background corrected quantification of fluorescence intensity on an Odyssey Imaging System with IRDye secondary antibodies (LI-COR Biosciences). For quantification, the protein levels were normalized to GAPDH or HSP90, expressed as a ratio to DMSO or vehicle control at matched timepoints. The normalized relative protein levels of p-Ser2 were used for a treatment effect comparison by performing an ANOVA using PROC MIXED in SAS. The ANOVA model included treatment, timepoints and their interactions as fixed effects. The least square means (LSM), differences between the LSMs and associated P values were generated. The following primary antibodies were used: Rpb1 NTD (D8L4Y) rabbit antibody [Cell Signaling Technology (CST), #14958], anti-RNA polymerase II subunit B1 (phospho CTD Ser-2, clone 3E10) rat antibody (Merck, 04-1571-I), recombinant anti-c-MYC rabbit antibody (Y69; Abcam, #ab32072), MCL1 (D5V5L) rabbit antibody (CST, #39224), cleaved-PARP (Asp214) (E2T4K) mouse antibody (CST, #32563), HSP90 (C45G5) rabbit antibody (CST, #4877), and GAPDH mouse antibody (Zytomed Systems, #ZYT-RGM2-6C5). […]
# [5] = tested on: SU-DHL-4 and SU-DHL-10 cell lines; experiment: RNA-seq differential gene expression in DLBCL cell lines; format: cell-based, human
# Experimental: Evaluation of the pharmacodynamic extent and duration of CDK9 inhibition were performed in vitro using the human DLBCL cell lines SU-DHL-4 and SU-DHL-10, harboring MYC amplification and MYC overexpression with P57T mutation, respectively. Cells were seeded 18 hours prior to treatment for 4 hours with one of three CDK9 inhibitors, enitociclib (0.25 and1 µmol/L), atuveciclib (1 µmol/L) or KB-0742 (1 µmol/L), cells were washed, and incubation continued until 48 hours posttreatment. Samples were collected before treatment (−4), immediately after treatment (0), and at 1, 2, 4, 8, 12, 16, 24, and 48 hours after washout for RNA sequencing (RNA-seq), qPCR, and Western blotting analyses. Total RNA was extracted from blood of patients and cell lines using RNeasy Plus Mini Kit (QIAGEN, #74136) and cDNA prepared with the Maxima First Strand cDNA Synthesis Kit for RT-PCR (Thermo Fisher Scientific, K1642) according to manufacturer's instructions. The integrity of purified total RNA was evaluated using an Agilent 2100 Bioanalyzer system and RNA 6000 Nano Kit (Agilent, #5067-1511). Differential gene expression analysis was performed (Fios Genomics) from RNA-seq data (Discovery Life Sciences). MYC and MCL1 mRNA levels were measured by qPCR in vitro and in vivo, using a Taqman qPCR system (Thermo Fisher Scientific), TaqMan Fast Universal PCR Master Mix (2X) no AmpErase (#4352042) and TaqMan probes for MYC (Hs00153408_m1) and MCL1 (Hs03043899_m1). RNA-seq data were analyzed using DESeq2 ([35]). RNA-seq data generated from the analysis of two cell lines treated with the three CDK9 inhibitors was analyzed to investigate the differences in gene expression levels between various posttreatment timepoints and the pretreatment samples. Quality control assessment and exploratory data analysis by principal component analysis (PCA) were done on raw counts and on normalized count data. Normalization of RNA-seq count data was done using trimmed mean of M-values normalization and transformed with voom, resulting in log2 counts per million with associated precision weights. […] Significance values (Padj) were adjusted for multiple testing, by controlling the FDR using the Benjamini–Hochberg procedure. […] RNA-seq data generated from blood samples taken from patients before and after their first dose (C1D1) or after multiple doses, before and after their third dose (C1D15) were analyzed and normalized using the same pipeline as cell lines for comparisons.
smiles,measurement,setting,value
COc1cc(F)ccc1-c1cc(Nc2cc(CS(C)(=N)=O)ccn2)ncc1F (stereo not drawn) [enitociclib],pIC50,[1],7.37
same,pIC50,[2],7.13
same,maximum body weight change,[3],−12.5%
same,p-Ser5 reductions in tumors (in words),[4],not robust
same,PHF23 fold change,"[5]; 250 nmol/L, 4 hours, Padj 1.14 e-12",−12.236
same,TP53RK fold change,"[5]; 250 nmol/L, 4 hours, Padj 7.76 e-8",−9.992
same,BTG1 and PIM3 by RNA-seq (in words),"[5]; 1 µmol/L, 4 hours",statistically significant downregulation
same,PHF23 and TP53RK by RNA-seq (in words),"[5]; 1 µmol/L, 4 hours",statistically significantly downregulated
same,MCL1 mRNA by RNA-seq (in words),"[5]; 4 hours treatment, in vitro",downregulation is observed but not statistically significant
same,MYC mRNA by RNA-seq (in words),"[5]; 4 hours treatment, in vitro",statistically significantly downregulated
same,ZPF36 by RNA-seq (in words),"[5]; 4 hours treatment, in vitro",significantly downmodulated
same,"MYC extent of downregulation, fold change","[5]; MYC+ DLBCL cell lines, clinically relevant conditions",−17.108 fold change
